The subject of the test is P. falciparum (New Guinean isolate D10). As to the kind of experiment: Parasitemia assay in P. falciparum infected human erythrocytes. Type of test: cell-based. How it is done: P. falciparum (New Guinean isolate D10) cultures were grown and maintained substantially as described in Trager et al. (1976) Science 193, 673-675. Human type O+ blood was obtained from healthy donors. Magainin 2 (Matsuzaki et al., 1995, supra) was made by solid phase peptide synthesis. Parasitemia assays were performed substantially as described in Pasvol et al (1978) Ann Trop Med Parasitol 72, 87-92 and Magowan et al. (1995) Blood 86, 3196-3204. […] Each group was done in triplicate and 7,500 erythrocytes were counted for each data point. […]
FIG. 1 provides a graphical representation of the data showing the inhibition of parasitemia in infected human erythrocytes over the foregoing time courses and concentrations. In the figure, ● represents data points for the untreated cells, ▪ represents data points for cells treated at 10 uM, ▴ at 25 uM, and ▾ at 50 uM.

From patent publication US6384015B1, “Selective lysis of malaria infected erythrocytes” (priority 1997, dated 2002) come the findings set out here.

For Magainin 2, the parasitemia (10 uM magainin 2, Day 1) was 0.92; the parasitemia (10 uM magainin 2, Day 2) is on record as 1.88; the parasitemia (10 uM magainin 2, Day 3) was determined as 2.40; the parasitemia (10 uM magainin 2, Day 4) is given as 4.52; the parasitemia (25 uM magainin 2, Day 1) was 0.41; the parasitemia (25 uM magainin 2, Day 2) was found to be 1.88. Also, the parasitemia reads like this: (25 uM magainin 2, Day 3) 1.61; (25 uM magainin 2, Day 4) 3.68; (50 uM magainin 2, Day 1) 0.52; (50 uM magainin 2, Day 2) 1.43; (50 uM magainin 2, Day 3) 1.96; (50 uM magainin 2, Day 4) 2.87. In addition, the “inhibition of parasitemia in infected human erythrocytes” value (10, 25 and 50 uM, over the time course) was “dose and time dependent inhibitions of parasitemia”. For the setting “P. falciparum infected blood-borne human erythrocytes, Examples 1 and 2”, the “selective lysis of infected versus non-infected erythrocytes” value was “particular effective at selectively lysing P. falciparum infected blood-borne human erythrocytes as compared with non-infected cells”.
